Assay results taken from patent US20160150782A1, “USE OF SELECTED PYRIDONE CARBOXAMIDES OR SALTS THEREOF AS ACTIVE SUBSTANCES AGAINST ABIOTIC PLANT STRESS” (BAYER CROPSCIENCE AKTIENGESELLSCHAFT, priority 2013, published 2016).

Key:
Assay type in all cases: in vivo
[1] = test system: Zea mays (corn); test: Cold stress test on sprayed greenhouse plants, visual damage scoring (Table 1); details: efficacy = reduction in damage intensity, spray WP, 600 l/ha water
Description: Seeds of monocotyledonous and dicotyledonous crop plants are sown in sandy loam in plastic or wood-fiber pots, covered with soil or sand and cultivated in a greenhouse under good growth conditions. The test plants are treated at the early leaf stage (BBCH10-BBCH13). To assure uniform water supply before commencement of stress, the potted plants are supplied with water by dam irrigation prior to substance application.
The inventive compounds, formulated in the form of wettable powders (WP), are sprayed onto the green parts of the plants as an aqueous suspension at an equivalent water application rate of 600 I/ha with addition of 0.2% wetting agent (e.g. agrotin). Substance application is followed immediately by stress treatment of the plants. For this purpose, the wood-fiber pots are transferred in plastic inserts in order to prevent them from subsequently drying out too quickly.
The duration of the respective stress phases is guided mainly by the condition of the stressed control plants. It is ended (by re-irrigating and transfer to a greenhouse with good growth conditions) as soon as irreversible damage is observed on the stressed control plants.
The end of the stress phase is followed by an approx. 4-14-day recovery phase, during which the plants are once again kept under good growth conditions in a greenhouse. The duration of the recovery phase is guided mainly by when the trial plants have attained a state which enables visual scoring of potential effects, and is therefore variable.
Once this juncture has been reached, the intensities of damage are scored visually in comparison to untreated, unstressed controls of the same age. The damage intensity is at first assessed in percent. These values are then used to calculate the efficacy of the test compounds by the following formula:
[formula] • E: Efficacy=reduction in damage intensity as a result of treatment with test substance • DIs: Damage intensity of the stressed control plants • DIt: Damage intensity of the plants treated with test compound […]

[2] = test system: Triticum aestivum; test: Drought stress test on sprayed greenhouse plants, visual damage scoring (Table 4); details: efficacy = reduction in damage intensity, dosage 250 g/ha, spray WP, 600 l/ha water
Description: (§1) Seeds of monocotyledonous and dicotyledonous crop plants are sown in sandy loam in plastic or wood-fiber pots, covered with soil or sand and cultivated in a greenhouse under good growth conditions. The test plants are treated at the early leaf stage (BBCH10-BBCH13). To assure uniform water supply before commencement of stress, the potted plants are supplied with water by dam irrigation prior to substance application. The inventive compounds, formulated in the form of wettable powders (WP), are sprayed onto the green parts of the plants as an aqueous suspension at an equivalent water application rate of 600 I/ha with addition of 0.2% wetting agent (e.g. agrotin). Substance application is followed immediately by stress treatment of the plants. For this purpose, the wood-fiber pots are transferred in plastic inserts in order to prevent them from subsequently drying out too quickly. Drought stress is induced by gradual drying out under the following conditions: “Day”: 14 hours with illumination at 26-30° C. “Night”: 10 hours without illumination at 18-20° C. The duration of the respective stress phases is guided mainly by the condition of the stressed control plants. […] The end of the stress phase is followed by an approx. 4-14-day recovery phase, during which the plants are once again kept under good growth conditions in a greenhouse. The duration of the recovery phase is guided mainly by when the trial plants have attained a state which enables visual scoring of potential effects, and is therefore variable. […] The damage intensity is at first assessed in percent.

[3] = test system: Zea mays (corn); test: Drought stress test on sprayed greenhouse plants, visual damage scoring (Table 2); parameters: key: reduction in damage intensity, damage assessed in %; details: efficacy = reduction in damage intensity, spray WP, 600 l/ha water
Description: as §1

Cc1cc(C(=O)NCCO)c(=O)[nH]c1C(F)(F)C(F)(F)F [compound 265]
E:E (ZEAMX) ([1]; dosage 10 g/ha): >5 | E (TRZAS) [2]: >5

CC(C)C(C)NC(=O)c1cc(Br)c(C(F)C(F)(F)F)[nH]c1=O (stereo not drawn) [compound 2128]
E:E (ZEAMX) ([1]; dosage 250 g/ha): >5 | E (ZEAMX) ([3]; dosage 25 g/ha): >5

CC(C)(C)CNC(=O)c1cc(I)c(C(F)(F)F)[nH]c1=O [compound 2223]
E:E (ZEAMX) ([1]; dosage 25 g/ha): >5 | E (ZEAMX) ([3]; dosage 250 g/ha): >5
